Source: patent US8772274B1, “Anti-cancer compositions and methods” (The Penn State Research Foundation, priority 2008, dated 2014)
Where a name gives a salt, the structure may show the parent alone. Read-outs that look alike come from different tables or passages of the source.

Key:
[1] = test system: HCT-116 colorectal adenocarcinoma cells; assay: MTS cell viability assay, HCT-116; type: cell-based; settings: Homo sapiens; HCT-116; 24-72 hours; MTS; read-out: Inhibition of growth IC50, HCT-116 (Table II)
[2] = test system: normal human fibroblast FF2441 and UACC 903 cells; assay: Sensitivity of melanoma cells compared to normal cells; type: cell-based; settings: FF2441 vs UACC 903; 2, 4, 6, 12 and 24 hours
Description: Sensitivity of melanoma cells to PBISe is compared to normal cells. […] Thus, cultured cancer cells are 2-5 fold more sensitive to PBISe than normal cells.

UACC 903 melanoma cells [3] = assay: Cellular proliferation, BrdU ELISA; type: cell-based; settings: 2 μM, 24 hours
Method: Cellular proliferation and apoptosis rates are measured by seeding 5×10^3 cells in 96-well plates, followed by treatment for 24 hours with PBISe or PBIT (0.5-10.5 μM). Proliferation and apoptosis rates are measured using a BrdU ELISA kit (Roche Applied Sciences, Indianapolis, Ind.) and Apo-ONE Homogenous caspase-3/7 Assay kit (Promega, Madison, Wis.), respectively, (Madhunapantula S V, et al., Cancer Res 2007; 67:3626-36).

UACC 903 melanoma cells [4] = assay: Apoptosis, Apo-ONE caspase-3/7 assay; type: cell-based
Method: […] Proliferation and apoptosis rates are measured using a BrdU ELISA kit (Roche Applied Sciences, Indianapolis, Ind.) and Apo-ONE Homogenous caspase-3/7 Assay kit (Promega, Madison, Wis.), respectively, (Madhunapantula S V, et al., Cancer Res 2007; 67:3626-36).

1205 Lu melanoma tumors = assay: Tumorigenicity assessment, 1205 Lu xenograft, i.p. treatment; type: in vivo, nude mice; settings: day 24; i.p. 0.315 μmoles (2.5 ppm selenium) Monday, Wednesday, Friday for 3 weeks
Method: Tumor kinetics are measured by subcutaneous injection of 5×10^6 UACC 903 or 2.5×10^61205 Lu cells in 0.2 ml of DMEM containing 10% FBS above left and right rib cages of 4-6 week old female nude mice (Harlan Sprague Dawley, Indianapolis, Ind.). Six days later, a fully vascularized tumor has developed and mice are randomly placed in control DMSO or experimental (PBIT or PBISe) groups (n=5 animals; 10 tumors total) followed by i.p. treatment with PBIT ([…]) or PBISe ([…]; equivalent to 2.5 ppm selenium per 20 g mouse) on Monday, Wednesday and Friday for 3 weeks. Dimensions of developing tumors and body weight are measured.

[5] = test system: WM35-GFP and UACC 903-GFP melanoma tumors in reconstructed skin; assay: Topical treatment of skin reconstructs containing melanoma cells; type: cell-based, human; settings: 8 days
Method: Generation of skin containing melanocytic lesions is briefly described. […] Mixture is then aliquoted into 6 or 12 well plates and incubated at 37° C. for 3 hours. […] One milliliter of cell suspension is added to each well on top of the dermal layer. Following two days growth, reconstructed skin is transferred onto wire grids and fed via diffusion from E-media below the platforms.
Skin reconstructs containing melanoma cells are treated topically with increasing concentrations (5, 10, 15 and 20 μM in 200 μL PBS) of PBIT or PBISe. Eight days later control vehicle PBS treated, PBIT and PBISe exposed skins are fixed in paraformaldehyde and stored in 0.5% EDTA.
Beginning on day 8 of culture, the reconstructed skins containing melanoma tumors are treated with increasing concentrations of PBISe (5, 10, 15 and 20 μM) or PBIT (15 and 20 μM) in 200 μL of vehicle PBS for 8 days and the size of developing tumors, in terms of area occupied by GFP, is measured using fluorescence microscopy.

[6] = test system: Caco-2 colon adenocarcinoma cells; assay: MTS cell viability assay, Caco-2
Method: In vitro inhibitory efficacy is measured using 3-(4,5-dimethylthiazol-2-yl)-5-(3-carboxymethoxyphenyl)-2-(4-sulfophenyl)-2H-tetrazolium (MTS) assay (Promega, Madison, Wis.). […] Cells are treated with either vehicle control, PBS, PBIT (40-120 μM) or PBISe (2.4-10 μM) for 72 h. The percentages of viable cells compared to control PBS treated cells are determined using MTS assay and IC50 values calculated using GraphPad Prism version 4.01 (GraphPad software, San Diego, Calif.). An IC50 value for each compound is determined by at least three independent experiments and represented with a standard error.
The IC50 value is evaluated by treating with increasing concentrations of PBIT, PEIT, PEISe (10-100 μM) or PBISe (1.6-50 μM) for 24-72 hours and the number of viable cell are quantified using MTS (Promega, Wis.).

## N=C(N)[Se]CCc1ccc(CC[Se]C(=N)N)cc1 [PBISe, s,s′-1,4-phenylene-bis(1,2-ethanediyl)bis-isoselenourea dihydrobromide]
[1]
  IC50: 4720 ± 440 nM
[2]
  fold higher concentrations required to kill fibroblasts compared to melanoma cells: 2-5 fold
UACC 903 melanoma cells [3]
  reduction of cellular proliferative capacity compared to PBS vehicle or PBIT treated cells: ~90%
UACC 903 melanoma cells [4]; UACC 903, increasing concentrations up to 10.5 μM, 24 hours, compared to PBIT
  caspase-3/7 activity: elevated
UACC 903 melanoma cells [4]; doses higher than 10.5 μM
  cell death at higher doses: > 80%
1205 Lu melanoma tumors
  difference in tumor volume compared to control DMSO or PBIT, 1205 Lu: ~50%
[5]; 20 uM topical, H&E
  morphology of constituent cells of skin reconstructs: no toxicity
[5]; 15 and 20 μM, topical, area occupied by GFP, WM35 and UACC 903
  difference in tumor size compared to vehicle PBS control and PBIT treated skins: 80-90%
[6]; Caco-2, 72 h, MTS
  increase in potency compared to PBIT: 25 fold
[6]; Caco-2, PBISe at 2-4 μM
  cells killed: > 80%
[6]; ratio of IC50 PBIT/PBISe, Caco-2
  Fold increase in efficacy (PBIT/PBISe), Caco-2: ~24.7 fold
[6]; read-out: IC50, Caco-2 colon adenocarcinoma cells, Caco-2, 72 h, MTS
  IC50: 2400 nM
[6]; read-out: Inhibition Cancer Cells IC50, Caco-2 (Table III), Caco-2 colorectal adenocarcinoma, MTS
  IC50: 2400 ± 430 nM
[6]; read-out: Inhibition of growth IC50, Caco-2 (Table II), Caco-2, 24-72 hours, MTS
  IC50: 2400 ± 430 nM
